From patent US20250027045A1, “ESTABLISHMENT OF ERYTHROID PRECURSOR CELL LINE CAPABLE OF CONDITIONAL MATURATION USING GENE OVEREXPRESSION” (IUCF-HYU (INDUSTRY-UNIVERSITY COOPERATION FOUNDATION …, priority 2021, published 2025)
Like-named read-outs stand apart in the source and are kept apart here.

What was measured:
[1] = test system: Cord blood-derived CD34+ cells; test: Proliferation of typical CD34+ cell culture with or without TGF-β inhibitor and PPAR-α agonist (cumulative cell number); type: cell-based, human
Protocol: HSCs were cultured for one to three days in a medium containing StemSpan SFEM (Stemcell Technologies) with 6 IU/ml EPO (Calbiochem, San Diego, CA), 100 ng/ml SCF (R&D Systems, Minneapolis, MN), and 10 ng/ml IL-3 (R&D Systems). Then, 5×10^4 cells were transduced with the virus concentrated in the above culture medium and polybrenc (8 μg/ml, Sigma). The multiplicity of infection (MOI) of the virus during transduction was calculated to be 15 to 30. 24 hours after the transduction, the medium was replaced with a fresh virus-free medium, and from day 5 of culture, the StemSpan SFEM medium was supplemented with 3 IU/ml EPO, 50 ng/ml SCF, 10^−6 M dexamethasone, and 250 nM TGF-β inhibitor (LY2157299, PeproTech, Rocky Hill, NJ), 10 μM PPAR-α agonist (GW7647, Sigma), and 1 μg/ml doxycycline (Takara Bio Inc.) to induce selective expression of HPV16 E6/E7 in the transduced cells. The efficiency of transduction was confirmed on day 7 of culture through GFP fluorescence expression of GFP-transduced cells, and the cells were maintained at a concentration of 2 to 3×10^5 cells/ml while replacing the medium with a fresh medium every two to three days. In addition, to obtain the cell proliferation and survival rate, the cells were stained with trypan blue (Gibco) and counted. […]

[2] = test system: Cord blood-derived CD34+ cells; test: Flow cytometry of CD71 marker: proportion of immature erythroblasts; type: cell-based, human; settings: day 17, flow cytometry
Protocol: The following antibodies were used: glycophorin A (GPA; CD235a)-FITC (Life Technologies Inc., Gaithersburg, MD); and CD71-PE (BioLegend Inc., San Diego, CA). The cells were washed with 0.1% BSA, then antibodies were added and stained for 15 minutes at 4° C., while blocking light. In addition, a fluorescence microscope (Nikon Eclipse Ti; Nikon Corporation) was used to confirm the GFP fluorescence expressed in the cells cultured in the plate.
There is an TGF-β inhibitor (LY2157299) which is known to be effective in the maintenance and proliferation of immature erythroblasts, and a PPAR-α agonist (GW7647) that may have a synergistic effect on the proliferation of immature erythroblasts with glucocorticoid was explored, and an experiment was performed on the effects of the two substances. First, the two substances were added to a typical CD34+ cell culture under different conditions and cultured. In terms of cell proliferation, the cells proliferated the most by 1,500-fold by day 15 of culture when the culture was performed by adding the two substances together, and the cells proliferated by 1,000-fold by day 13 of culture in the experimental group where only the TGF-β inhibitor was added. […]

Source text for E6/E7-transduced cells: Some of the cells in culture were spread on a slide using a cell centrifuge (Cellspin; Hanil Science Industrial Co. Ltd., Incheon, Korea) and stained with a Wright-Giemsa stain (Sigma), and the state, shape, and maturity of the cells were confirmed in a blind manner. Cell photos were taken using an optical microscope (Nikon Eclipse TE2000-U; Nikon Corporation).
In addition, the immature erythroblast marker CD71 was attached to the proliferating cells, and the proportion of immature erythroblasts was confirmed through flow cytometry.

Structure (SMILES) | proliferation rate ([1]; day not given) | proportion of immature erythroblasts (CD71) [2] | cell proliferation ([1]; by day 13 of culture) | immature erythroblasts, % of all cells (E6/E7-transduced cells; day 28 of culture) | immature erythroblasts, % of all cells (E6/E7-transduced cells; day 33 of culture)
CC(C)(Sc1ccc(CCN(CCCCC2CCCCC2)C(=O)NC2CCCCC2)cc1)C(=O)O [PPAR-α agonist, GW7647] | 500 fold | 53% | – | – | –
Cc1cccc(-c2nn3c(c2-c2ccnc4ccc(C(N)=O)cc24)CCC3)n1 [TGF-β inhibitor, LY2157299] | – | – | 1,000 fold | 26.7% | 15.2%
